Data: patent publication US20100093642A1, “NOVEL POLYPEPTIDES” (priority 2006, published 2010)
In brackets after ≈: the same amount, converted by molar mass. Read-outs that look alike come from different tables or passages of the source. Residues, ends and D or L forms follow the SMILES beside them. No end group written: not given here.

Assays:
[1] = test system: Staphylococcus aureus (MRSA), K15-64; assay type: cell-based; conditions: multi-resistant clinical isolate; 37° C.; 3×10^6 cells per ml
Procedure: (§1) The antibacterial activities of the different peptides were determined by continuous monitoring of bacterial growth with a Bioscreen C microbiology reader (Labsystems Oy, Helsinki, Finland). The test was performed in 100-well flat-bottomed honeycomb plates, in which 50 μl of test fractions were incubated with 50 μl of a suspension of an actively growing culture of bacteria diluted in Mueller Hinton medium to a starting concentration of 3×10^4 cells per ml. The Gram-negative bacteria, Listonella (Vibrio) anguillarum, serotype O2 (FT 1801, a fish pathogenic strain), Pseudomonas aeruginosa and E. coli (ATCC 25922), and the Gram-positive bacteria, C. glutamicum (ATCC 13032) and S. aureus (ATCC 9144), were chosen as test bacteria. The growth chamber was maintained at either 20 or 37° C. during the incubation period. The absorbance was measured at 2 h intervals for 48 h by a turbidometric method with vertical light photometry and a wide band filter (420-580 nm), which is more insensitive to color change in the sample compared to single wavelength detection. Antibacterial activity was determined when the optical density (OD) of the growth control (bacteria plus water) reached an absorbance of 0.3-0.4. Fractions were regarded as active when the OD was less than 50% of the growth control. Polymyxin B (Sigma, St. Louis, Mo., USA), Lactoferricin B, Cecropin P1 and Hyalophora cecropia Cecropin B were used as reference.
(§2) The antimicrobial molecules were also tested against drug resistant clinical isolates, such as the commonly encountered multi-resistant human pathogen S. aureus (MRSA) K15-64 and the glycopeptide (vancomycin)-resistant Enterococccus faecium (GREF) K9-28. The non-clinical isolates Escherichia coli (ATCC 25922), Pseudomonas aeruginosa (ATCC 27853), Corynebacterium glutamicum (ATCC 13032), and Staphylococcus aureus (ATCC 9144) were also tested for comparison. Serial dilutions of synthetic peptides were made in double distilled water and tested according to the method described above. However, in these experiments the starting concentration of bacteria were 3×10^6 cells per ml and the temperature in the growth chamber was 37° C. Polymyxin B was used as positive control for the Gram-negative bacteria.

Bacillus spp K13-61 = assay type: cell-based; conditions: clinical isolate; 37° C.; 3×10^6 cells per ml
Procedure: as §1, §2

[2] = test system: Staphylococcus aureus, ATCC 9144; assay type: cell-based; conditions: non-clinical isolate; 37° C.; 3×10^6 cells per ml
Procedure: as §1, §2

Klebsiella K15-72 = assay type: cell-based; conditions: clinical isolate; 37° C.; 3×10^6 cells per ml
Procedure: as §1, §2

Salmonella K14-40 = assay type: cell-based; conditions: clinical isolate; 37° C.; 3×10^6 cells per ml
Procedure: as §1, §2

[3] = test system: Corynebacterium glutamicum, ATCC 13032; assay type: cell-based; conditions: non-clinical isolate; 37° C.; 3×10^6 cells per ml
Procedure: as §1, §2

TNF-α = assay: Inhibition of LPS induced TNF-α response in THP-1 cells (ELISA); assay type: cell-based, human; conditions: Ratio TC50 (THP-1)/EC50 (anti-TNFα)
Procedure: FIG. 12. Antiinnflammatory response measured as inhibition of tumor necrosis factor alpha (TNF-α) response in THP-1 cells after stimulation with LPS. THP-1 cells (1×10^6 cells/ml) were treated with P17 derivates in different concentrations for 1 hour, and subsequently stimulated with 100 ng/ml LPS for 6 hours. LPS was used as control for induction of TNF-α. (set as 100% response), RPMI media was used as negative (non-stimulated) control, and cycloheximide (Chx, 10 μg/ml) was used as a an inhibitory control for LPS induced TNF-α. The data presented are the average of two parallells. (A) The effect of the peptides P17 HC and P17 HC (1-20). (B) The effect of the peptides P17 HC (11-20) and P17 HC-Br.
The THP-1 cells (ATCC, TIB-202) were maintained in suspension in RPMI-1640 medium with 25 mM HEPES and 2 mM Glutamax I supplemented with 10% FBS (growth medium) in a humidified atmosphere of 5% CO2 at 37° C. Cells to be used in the assay were grown to a density of 8×10^5-1×10^6 cells/ml. The cells were centrifuged for 7 min at 200 g and the cell pellet was resuspended to a concentration of 10^6 cells/ml in RPMI-1640 with 10% FBS.
To allow examination of antiinflammatory effects of the peptides on basal and stimulated cytokine production, peptide-treated macrophages were cultured in the presence of LPS and the levels of TNF-α were measured. The primary screening was based on a mammalian cell line; the human THP-1 line. This line is of monocyte/macrophage origin and responds to various stimuli by increased production of cytokines, like TNF-α and the IL-1β, (Wang et al. 2000). To induce monocyte-macrophage differentiation, THP-1 cells were cultured in 96-well culture plates (10^6 cells/well) in a volume of 100 μl RPMI 1640 medium, containing 50 ng/ml PMA (which is known to induce the maturation of monocytes) and incubated in a humidified atmosphere of 5% CO2, at 37° C. for 48 hours. The medium was then removed and the cells were washed with PBS, added 100 μl fresh medium (without PMA) and incubated for another 24 hours. Medium was removed and the adherent macrophages were treated with 100 μl of peptide solution (concentrations ranging from 0 to 400 μg/ml), diluted in RPMI-1640 medium with 25 mM HEPES and 2 mM Glutamax I, but without […] (assay medium). After incubation at 37° C. for 1 hour, the cells were added LPS (0.1 μg/ml) and further incubated for 6 hours. […] TNF-α concentrations were quantified by the Human TNF-α ELISA MAX kit (BioLegend), according to the manufacturer's instructions. Duplicate readings for each standard, control and sample were recorded. The average absorbance for each set of standards, controls, and samples was calculated using a standard curve. Concentrations were determined by extrapolation on the standard curve.

S. aureus (ATCC 9144) = assay type: cell-based, Staphylococcus aureus
How it was run: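 Peptide fractions were incubated with actively growing bacteria in Mueller Hinton medium at a starting concentration of 3×10^4 cells per ml. Growth was monitored continuously in a Bioscreen C reader; polymyxin B served as reference.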

| Compound | Minimal inhibitory concentration, Staphylococcus aureus (MRSA), K15-64 [1] [µM] | Minimal inhibitory concentration, Bacillus spp K13-61 (Bacillus spp K13-61) [µM] | Minimal inhibitory concentration, Staphylococcus aureus, ATCC 9144 [2] [µM] | Minimal inhibitory concentration, Klebsiella K15-72 (Klebsiella K15-72) [µM] | Minimal inhibitory concentration, Salmonella K14-40 (Salmonella K14-40) [µM] | Minimal inhibitory concentration, Corynebacterium glutamicum, ATCC 13032 [3] [µM] | Therapeutic index TC50/EC50 (TNF-α) | Minimal inhibitory concentration, S. aureus (S. aureus (ATCC 9144); 37° C.) [µM] | Minimal inhibitory concentration, S. aureus (S. aureus (ATCC 9144); ATCC 9144) [µM] |
| --- | --- | --- | --- | --- | --- | --- | --- | --- | --- |
| GWFKKTFHKVSHAVKSGIHAGQRGCSALGF [P17 HC] | 6.25 | 6.25 | 12.5 | 3.12 | 6.25 | 0.78 | 13.6 | – | – |
| CC[C@H](C)[C@H](NC(=O)CNC(=O)[C@H](CO)NC(=O)[C@H](CCCCN)NC(=O)[C@@H](NC(=O)[C@H](C)NC(=O)[C@H](Cc1c[nH]cn1)NC(=O)[C@H](CO)NC(=O)[C@@H](NC(=O)[C@H](CCCCN)NC(=O)[C@H](Cc1c[nH]cn1)NC(=O)[C@H](Cc1ccccc1)NC(=O)[C@@H](NC(=O)[C@H](CCCCN)NC(=O)[C@H](CCCCN)NC(=O)[C@H](Cc1ccccc1)NC(=O)C(Cc1c[nH]c2ccc(Br)cc12)NC(=O)CN)[C@@H](C)O)C(C)C)C(C)C)C(=O)N[C@@H](Cc1c[nH]cn1)C(=O)N[C@@H](C)C(=O)NCC(=O)N[C@@H](CCC(N)=O)C(=O)N[C@@H](CCCNC(=N)N)C(=O)NCC(=O)N[C@@H](CS)C(=O)N[C@@H](CO)C(=O)N[C@@H](C)C(=O)N[C@@H](CC(C)C)C(=O)NCC(=O)N[C@@H](Cc1ccccc1)C(=O)O (stereo partly shown) [P17 HC-Br] (HELM PEPTIDE1{G.[O=C(C(Cc1c[nH]c2ccc(Br)cc12)N[*:1])[*:2]].F.K.K.T.F.H.K.V.S.H.A.V.K.S.G.I.H.A.G.Q.R.G.C.S.A.L.G.F}$$$$V2.0) | 6.25 (≈ 20.8 µg/mL) | 6.25 (≈ 20.8 µg/mL) | 12.5 (≈ 41.5 µg/mL) | 3.12 (≈ 10.4 µg/mL) | 6.25 (≈ 20.8 µg/mL) | 0.78 (≈ 2.59 µg/mL) | 46.5 | 6.25 (≈ 20.8 µg/mL) | 1.56 (≈ 5.18 µg/mL) |
| CC[C@H](C)[C@H](NC(=O)CNC(=O)[C@H](CO)NC(=O)[C@H](CCCCN)NC(=O)[C@@H](NC(=O)[C@H](C)NC(=O)[C@H](Cc1c[nH]cn1)NC(=O)[C@H](CO)NC(=O)[C@@H](NC(=O)[C@H](CCCCN)NC(=O)[C@H](Cc1c[nH]cn1)NC(=O)[C@H](Cc1ccccc1)NC(=O)[C@@H](NC(=O)[C@H](CCCCN)NC(=O)[C@H](CCCCN)NC(=O)[C@H](Cc1ccccc1)NC(=O)C(Cc1c[nH]c2ccc(Br)cc12)NC(=O)CN)[C@@H](C)O)C(C)C)C(C)C)C(=O)N[C@@H](Cc1c[nH]cn1)C(=O)N[C@@H](C)C(=O)O (stereo partly shown) [P17 HC-Br (1-20)] (HELM PEPTIDE1{G.[O=C(C(Cc1c[nH]c2ccc(Br)cc12)N[*:1])[*:2]].F.K.K.T.F.H.K.V.S.H.A.V.K.S.G.I.H.A}$$$$V2.0; N-terminus and C-terminus assumed) | – | – | – | – | – | – | – | – | 100 (≈ 234 µg/mL) |
| GWFKKTFHKVSHAVKSGIHA [P17 HC (1-20)] | >50 | 50 | >50 | >50 | 50 | 3.12 | >17.4 | – | 100 |
